As usually defined, the melting point is the temperature, or range, at which the solid turns liquid. With `Cl.N[C@@]1(C(=O)OCc2cc(Cl)ccc2Cl)CC[C@H]2[C@H](C(=O)O)[C@H]21` [Example 33, (1S,2S,5R,6S)-2-Amino-bicyclo[3.1.0]hexane-2,6-dicarboxylic acid 2-(2′,5′-dichloro)benzyl ester hydrochloride], the melting point lay within 173 to 175 °C.

As to `N[C@@]1(C(=O)OCc2cccc(F)c2)CC[C@H]2[C@H](C(=O)O)[C@H]21` [Example 54, (1S, 2S, SR,6S)-2-Amino-bicyclo[3.1.0]hexane-2,6-dicarboxylic acid 2-(3′-fluoro)benzyl ester], the melting point is 225 °C (dec.). On to `Cc1ccc(C)c(COC(=O)[C@]2(N)CC[C@H]3[C@H](C(=O)O)[C@H]32)c1.Cl` [Example 41, (1S,2S,5R,6S)-2-Amino-bicyclo[3.1.0]hexane-2,6-dicarboxylic acid 2-(2′,5′-dimethyl)benzyl ester hydrochloride], for which the melting point is 70 °C (dec.). In the case of `Cl.N[C@@]1(C(=O)OCc2ccccc2F)CC[C@H]2[C@H](C(=O)O)[C@H]21` [Example 31, (1S,2S,5R,6S)-2-Amino-bicyclo[3.1.0]hexane-2,6-dicarboxylic acid 2-(2′-fluoro)benzyl ester hydrochloride] it was > 220 °C (dec.); in that of `COc1ccccc1COC(=O)[C@]1(N)CC[C@H]2[C@H](C(=O)O)[C@H]21` [Example 48, (1S,2S, SR, 6S)-2-Amino-bicyclo[3.1.0]hexane-2,6-dicarboxylic acid 2-(2′-methoxy)benzyl ester], 195 °C (dec.); in that of `Cl.N[C@@]1(C(=O)OCc2ccccc2C(F)(F)F)CC[C@H]2[C@H](C(=O)O)[C@H]21`, > 175 °C (dec.).

In turn, `Cl.N[C@@]1(C(=O)OCc2ccc(Cl)cc2Cl)CC[C@H]2[C@H](C(=O)O)[C@H]21` [Example 29, (1S,2S,5R,6S)-2-Amino-bicyclo[3.1.0]hexane-2,6-dicarboxylic acid 2-(2′,4′-dichloro)benzyl ester hydrochloride] returned a melting point of 135 to 137 °C. In the case of `Cl.N[C@@]1(C(=O)OCc2cc(F)cc(F)c2)CC[C@H]2[C@H](C(=O)O)[C@H]21` [Example 35, (1S,2S,5R,6S)-2-Amino-bicyclo[3.1.0]hexane-2,6-dicarboxylic acid 2-(31,5′-difluoro)benzyl ester hydrochloride] it was 98 to 99 °C. Under `Cl.N[C@@]1(C(=O)OCc2ccccc2Br)CC[C@H]2[C@H](C(=O)O)[C@H]21` [Example 34, (1S,2S,5R,6S)-2-Amino-bicyclo[3.1.0]hexane-2,6-dicarboxylic acid 2-(2′-bromo)benzyl ester hydrochloride] stands 190 to 191 °C.

These data come from patent US20050009912A1, “Prodrugs of excitatory amino acids” (priority 2001, published 2005).
